Assay results as given in patent publication US9421281B2, “Target vector with activable imaging function” (Centre National de la Recherche Scientifique, priority 2005, dated 2016).

What was measured:
[1] = Chemical cleavage of the disulfide bridge with 2-mercaptoethanol (absorption and fluorescence); type: physicochemical; conditions: for fluorescence after chemical cleavage of the S—S disulfide bridge: imaging function grafted onto RAFT-(cRGD)4, 10 mM PBS, pH 7.2, [2-MCE]=85 mM; for fluorescence of the Cy5 fluorophore(s) before cleavage of the disulfide bridge: imaging function grafted onto RAFT-(cRGD)4, 0.5 or 0.10 μM in 10 mM PBS, pH 7.2
Excerpt: FIG. 5: Absorption and fluorescence of the imaging function Cy5-Cys-S—S-Cys-Cy5 before and after chemical cleavage of the disulfide bridge with 2-mercaptoethanol (2-MCE). A. Absorption spectrum and evolution thereof over time during the addition of 2-MCE. […] C. Evolution over time of the fluorescence of the imaging function during the addition of 2-MCE. […] FIG. 6: Absorption and fluorescence of the imaging function Cy5-Cys-S—S-Cys-QSY21 before and after chemical cleavage of the disulfide bridge with 2-mercaptoethanol (2-MCE). A. Absorption spectra and evolution thereof over time during the addition of 2-MCE. […] C. Evolution over time of the fluorescence of the imaging function during the addition of 2-MCE. […] FIG. 10: Absorption and fluorescence of the imaging function Cy5-Cys-S—S-Cys-Cy5 grafted onto RAFT-(cRGD)4, before and after chemical cleavage of the disulfide bridge with 2-mercaptoethanol (2-MCE). A. Absorption spectrum and evolution thereof over time during the addition of 2-MCE. […] C. Evolution over time of the fluorescence of the imaging function during the addition of 2-MCE. […] FIG. 11: Absorption and fluorescence of the imaging function Cy5-Cys-S—S-Cys-QSY21 grafted onto RAFT-(cRGD)4, before and after chemical cleavage of the disulfide bridge with 2-mercaptoethanol (2-MCE). A. Absorption spectrum and evolution thereof over time during the addition of 2-MCE. […] C. Evolution over time of the fluorescence of the imaging function during the addition of 2-MCE.

[2] = system: subcutaneous tumor of IGROV-1 type; experiment: Optical imaging of tumors in the nude mouse (fluorescence reflectance imaging); type: in vivo, nude mice; conditions: 10 nmol/mouse i.v.; for evolution of the signal in the tumor over time / signal in the tumor compared with the control probe: IGROV-1 tumor, FIG. 12A; for contrast, ratio of signal between the tumor and the skin: compared with RAFT-(cRGD)4-Cy5-Cys-S—S-cysteine, FIG. 12B
Experimental: FIG. 12: Results of the in vivo injection of the molecular probes RAFT-(cRGD)4-Cy5-Cys-S—S-Cys=Cy5, RAFT-(cRGD)4-Cy5-Cys-S—S-Cys-QSY21, and RAFT-(cRGD)4-Cy5-Cys-S—S-Cys (control) in nude mice, imaged using a fluorescence imaging device (excitation 633 nm; detection λ>670 nm). Intravenous injection of 10 nmol of probe/mouse, in 100 μL of PBS (pH 7.1, 9.5 mM), into the tail of anesthetized mice carrying, on the back, a subcutaneous tumor of IGROV-1 type ([…] injected subcutaneously 2 weeks before imaging). A. Fluorescence intensity measured in the tumor over time. B. Ratio of the fluorescence intensities measured in the tumor and in the skin over time. C. Images obtained 10 minutes and 5 h after injection for the various molecular probes.
The mice used are female nude mice 6 to 8 weeks old, maintained under pathogen-free conditions. The IGROV-1 cells (human ovarian cancer model) are cultured in an RPMI 1640 culture medium containing 1% of glutamine, 10% of FCS, 50 U/ml of penicillin and 50 μg/ml of streptomycin. The cells are maintained at 37° C. under a humid atmosphere with 5% of CO2. 10×10^6 cells are injected subcutaneously into the back of the mice 2 weeks before injection of the molecular vectors RAFT-(cRGD)4-Cy5-Cys-S—S-Cys-Cy5 and RAFT-(cRGD)4-Cy5-Cys-S—S-Cys-QSY21. The latter are injected into the tail intravenously, in 100 μl of PBS (pH 7.1, 9.5 mM), at doses of 10 nmol/mouse.
The anesthetized mice are imaged with a fluorescence reflectance imaging (FRI) device, comprising as excitation source a crown of LEDs equipped with interference filters, emitting at 633 nm (illumination power 50 μW·cm^−2). The images are collected after filtration with an RG665 colored filter of optical density>5 at the excitation wavelength by means of a CCD camera (Orca BTL, Hamamatsu), with an exposure time of 100 ms. The signals are quantified using image processing software.

Hekβ3 cells = experiment: Penetration into the cells, laser scanning confocal microscopy; type: cell-based; conditions: 1 to 2 hours of incubation
Experimental: FIG. 13: Penetration of the labels into the cells, imaged by laser scanning confocal microscopy. Hekβ3 cells after 1 to 2 hours incubation in the presence of a negative control RAFT(4cRAD)-Cy5 (column 1), or in the presence of RAFT(4cRGD)-Cy5 (column 2), RAFT(4cRGD)-Cy5-Cys-S—S-Cys-Cy5 (column 3), or RAFT(4cRGD)-Cy5-Cys-S—S-Cys-quencher (column 4). The penetration into the cells of the probes RAFT-(cRGD)4-Cy5, RAFT-(cRGD)4-Cy5-Cys-S—S-Cys-Cy5 and RAFT-(cRGD)4-Cy5-Cys-S—S-Cys-QSY21 was observed on Hekβ3 cells, after 1 to 2 hours of incubation.

| Substance | fluorescence after chemical cleavage of the S—S disulfide bridge [1] | fluorescence of the Cy5 fluorophore(s) before cleavage of the disulfide bridge [1] | evolution of the signal in the tumor over time [2] | signal in the tumor compared with the control probe [2] | contrast, ratio of signal between the tumor and the skin [2] | penetration into the cells (location of fluorescence) (Hekβ3 cells) | penetration into the cells (location of fluorescence) (Hekβ3 cells; listed as RAFT-Cy5-Cys-S—S-Cys-Q) |
| --- | --- | --- | --- | --- | --- | --- | --- |
| cysteine(Cy5)-S—S-cysteine(Cy5)RAFTc[RGDfK-]4 [RAFT-(cRGD)4-Cy5-Cys-S—S-Cys-Cy5] | completely released | initially self-quenched | gradual appearance of the signal in the tumor | more signal in the tumor | increases | does not enter well |  |
| cysteine(Cy5)-S—S-cysteine(QSY21)RAFTc[RGDfK-]4 [RAFT-(cRGD)4-Cy5-Cys-S—S-Cys-QSY21] | completely released | initially self-quenched | gradual appearance of the signal in the tumor | more signal in the tumor | increases | clear fluorescence inside the cells | penetrates into the cells better |
| cysteine(Cy5)-S—S-cysteineRAFTc[RGDfK-]4 [RAFT-(cRGD)4-Cy5-Cys-S—S-cysteine, reference compound] |  |  | decreases very rapidly over time |  |  |  |  |
